± gives the expanded uncertainty stated by the source.
Settings: for viscosity / mass density: 101 kPa, Liquid; for mass density: Vibrating tube method

Compound | surface tension liquid-gas (293.15 K) [mN/m] | viscosity (293.15 K) [mPa·s] | mass density (293.15 K) [kg/m3] | surface tension liquid-gas (298.15 K) [mN/m] | viscosity (298.15 K) [mPa·s] | mass density (298.15 K) [kg/m3] | surface tension liquid-gas (303.15 K) [mN/m] | viscosity (303.15 K) [mPa·s] | mass density (303.15 K) [kg/m3] | surface tension liquid-gas (313.15 K) [mN/m] | viscosity (313.15 K) [mPa·s] | mass density (313.15 K) [kg/m3] | surface tension liquid-gas (323.15 K) [mN/m] | viscosity (323.15 K) [mPa·s] | mass density (323.15 K) [kg/m3] | surface tension liquid-gas (333.15 K) [mN/m] | viscosity (333.15 K) [mPa·s] | mass density (333.15 K) [kg/m3]
CCCO [propan-1-ol] | 23.67 ± 0.72 | 2.2 ± 0.28 | 804 ± 5 | 23.31 ± 0.72 | 1.99 ± 0.26 | 800.1 ± 5.1 | 22.81 ± 0.7 | 1.73 ± 0.22 | 796 ± 5 | 22.19 ± 0.69 | 1.38 ± 0.18 | 788 ± 5 | 21.34 ± 0.67 | 1.12 ± 0.15 | 780 ± 5 | 20.66 ± 0.65 | 0.91 ± 0.12 | 
CCOP(=O)([O-])OCC.CCn1cc[n+](C)c1 [1-ethyl-3-methylimidazolium diethyl phosphate] | 34.78 ± 1.3 | 537.03 ± 99 | 1151 ± 10 | 34.46 ± 1.3 | 320.89 ± 53 | 1146 ± 9 | 34.19 ± 1.2 | 284.34 ± 46 | 1141 ± 9 | 33.54 ± 1.2 | 150.96 ± 22 | 1130 ± 9 | 33.15 ± 1.2 | 90.02 ± 12 | 1116 ± 9 | 32.81 ± 1.2 | 58.02 ± 7.5 | 1103 ± 9
COP(=O)([O-])OC.Cn1cc[n+](C)c1 [1,3-dimethylimidazolium dimethylphosphate] | 47.78 ± 1.5 | 381.22 ± 65 | 1254 ± 9 | 46.98 ± 1.5 | 336.74 ± 56 | 1250 ± 9 | 46.21 ± 1.4 | 221.41 ± 34 | 1247 ± 9 | 44.89 ± 1.4 | 178.66 ± 26 | 1240 ± 9 | 42.67 ± 1.4 | 147.95 ± 21 | 1233 ± 9 | 41.99 ± 1.3 | 133.73 ± 19 | 1230 ± 8
CC(C)O [propan-2-ol] | 21.28 ± 0.67 | 2.41 ± 0.31 | 786 ± 5 | 20.94 ± 0.66 | 2.06 ± 0.27 | 781 ± 5 | 20.54 ± 0.65 | 1.79 ± 0.23 | 777 ± 5 | 19.97 ± 0.64 | 1.35 ± 0.17 | 768 ± 5 | 18.87 ± 0.61 | 1.03 ± 0.13 | 759 ± 5 | 18.11 ± 0.59 | 0.82 ± 0.11 | 750 ± 5

— the NIST ThermoML archive (doi:10.1021/je400576e)
